How the values were obtained:
Assay type in all cases: in vivo
southern armyworm = assay: Southern armyworm foliar spray test on bean plants; conditions: Spodoptera eridania, 120 h; foliar application at 100 ppm; second instar larvae, held five days; read-out: pest mortality SAW
Procedure: (§1) For mite, aphid, southern armyworm, Mexican bean beetle, and tobacco budworm tests, a solution or suspension was prepared by adding 10 mg of the test compound to a solution of 160 mg of dimethylformamide, 838 mg of acetone, 2 mg of a 3:1 ratio of Triton X-172 : Triton X-152 (respectively, mainly anionic and nonionic low foam emulsifiers which are each anhydrous blends of alkylaryl polyether alcohols with organic sulfonates), and […] of water. The result was a concentration of 100 ppm of the test compound.
(§2) Southern armyworm: Potted bean plants, were placed on a revolving turntable and sprayed with 100 ml of the 100 ppm test compound formulation by use of a DeVilbiss spray gun set at 40 psig air pressure. As an untreated control, 100 ml of a water-acetone-DMF-emulsifier solution, containing no test compound, were also sprayed on plants. A treated control with a commercial technical compound, either cypermethrin or sulprofos, formulated in the same manner, was tested as a standard. When dry, the leaves were placed in plastic cups lined with moistened filter paper. Five randomly selected second instar southern armyworm larvae were introduced into each cup which was closed and held for five days. Larvae which were unable to move the length of the body, even upon stimulation by prodding, were considered dead.

Mexican bean beetle = Mexican bean beetle foliar spray test on bean plants; conditions: Epilachna varivestis, 120 h; foliar application at 100 ppm; second instar larvae, held five days; read-out: pest mortality MBB
Procedure: as §1
as §2, with “Mexican bean beetle:” for “Southern armyworm:”, “plants” for “plants,”, “formulation, sufficient to wet the plants to runoff,” for “formulation”, “Mexican bean beetle” for “southern armyworm”

housefly = assay: House fly bait test; conditions: Musca domestica; bait application at 100 ppm; adult flies, after 24 hours; read-out: pest mortality HF
Source text: For housefly tests, the formulation was initially prepared in a similar manner to the above, but in 16.3 g of water with corresponding adjustment of other components, providing a 200 ppm concentration. Final dilution with an equal volume of a 20% by weight aqueous solution of sucrose provided a 100 ppm concentration of the test compound. When necessary, sonication was provided to insure complete dispersion.
House fly: Four to six day old adult house flies were reared according to the specifications of the Chemical Specialties Manufacturing Association (Blue Book, McNair-Dorland Co., N.Y. 1954; pages 243-244, 261) under controlled conditions. The flies were immobilized by anesthetizing with carbon dioxide and twenty five immobilized individuals, males and females, were transferred to a cage consisting of a standard food strainer and a wrapping-paper-covered surface. Ten ml of the 100 ppm test compound formulation were added to a soufflé cup containing an absorbent cotton pad. As an untreated control, 10 ml of a water-acetone-DMF-emulsifier-sucrose solution, containing no test compound, were applied in a similar manner. A treated control with a commercial technical compound, malathion, formulated in the same manner, was tested as a standard. The bait cup was introduced inside the food strainer prior to admitting the anesthetized flies.

[1] = test system: southern root-knot nematode; assay: Southern root-knot nematode soil test on tomato; design: dose or concentration left out as unconfirmed; conditions: Meloidogyne incognita; Soil Conc. at 21 Kg/ha; second stage juveniles; read-out: pest mortality Nema (J2)
Procedure: For southern root-knot nematode and systemic tests for southern armyworm, cotton aphid, tobacco budworm and greenbug, a stock solution or suspension was prepared by adding 15 mg of the test compound to 250 mg of dimethylformamide, 1250 mg of acetone and 3 mg of the emulsifier blend referenced above. Water was then added to provide a test compound concentration of 150 ppm. When necessary, sonication was provided to insure complete dispersion.
Southern root-knot nematode: Infected roots of tomato plants, containing egg masses of southern root-knot nematode, were removed from a stock culture and cleaned of soil by shaking and washing with tap water. The nematode eggs were separated from the root tissue and rinsed with water. Samples of the egg suspension were placed on a fine screen over a receiving bowl, in which the water level was adjusted to be in contact with the screen. From the bowl, juveniles were collected on a fine screen. The bottom of a cone-shaped container was plugged with coarse vermiculite and then filled to within 1.5 cm of the top with about a 200 ml volume of pasteurized soil. Then into a hole made in the center of the soil in the cone was pipetted an aliquot of the 150 ppm test compound formulation. A treated control with a commercial technical compound, fenamifos, formulated in a similar manner, was tested as a standard. As an untreated control, an aliquot of a water-acetone-DMF-emulsifier solution, containing no test compound, was applied in a similar manner. Immediately after treatment of the soil with the test compound there were added to the top of each cone 1000 second stage juvenile southern root-knot nematodes. After 3 days, a single healthy tomato seedling was then transplanted into the cone. The cone, containing the infested soil and tomato seedling, was kept in the greenhouse for 3 weeks. At the termination of the test, […], […]

twospotted spider mite = assay: Twospotted spider mite test; conditions: Tetranychus urticae, foliar, 144 h, read-out: control of mites
Procedure: Twospotted spider mite: Leaves infested with adult and nymphal stages of the two-spotted spider mite, obtained from a stock culture were placed on the primary leaves of two bean plants growing in a 6 cm. peat pot. A sufficient number of mites (150-200) for testing were transferred to the fresh plants within a period of twenty-four hours. The potted plants (one pot per compound) were placed on a revolving turntable and sprayed, sufficient to wet the plants to runoff, with 100 ml of the 100 ppm test compound formulation by use of a DeVilbiss spray gun set at 40 psig. air pressure. As an untreated control, 100 ml of the water-acetone-DMF-emulsifler solution, containing no test compound, were also sprayed on infested plants. A treated control with a commercial technical compound, either dicofol or hexythiazox, formulated in the same manner, was tested as a standard. The sprayed plants were held for six days, after which a mortality count of motile forms was made.

How did the mortality at 100 ppm (southern armyworm) turn out when `COC(C)C(=O)Nc1c([S+]([O-])C(F)(F)F)c(C#N)nn1-c1c(Cl)cc(C(F)(F)F)cc1Cl` (centres unmarked) [Compound 24] was run?
The mortality at 100 ppm was 70 to 100%.

What about the mortality at 100 ppm (Mexican bean beetle) of the same compound?
The mortality at 100 ppm was 70 to 100%.

And the mortality at 100 ppm (housefly)?
Its mortality at 100 ppm is 70 to 100%.

What about the mortality [1] of the same compound?
Its mortality is 70 to 100%.

What about the mortality at 100 ppm (twospotted spider mite) of the same compound?
The mortality at 100 ppm was 30 to 70%.
